Patent US20230093594A1, “PANTETHENOYLCYSTEINE DERIVATIVES AND USES THEREOF” (Comet Therapeutics, Inc., priority 2019, published 2023)

Columns and labels:
[1] = system: Peripheral blood mononuclear cells co-cultured with venular endothelial cells (HUVEC) (LPS system); assay: BioMAP LPS system (LPS, 24h); format: cell-based, human; conditions: procedure of Example 43 (LPS)
Method: (§1) The BioMAP platform is an in vitro phenotypic profiling technology that screened the compounds of the present disclosure (hereafter indicated as test agents) in human primary cell-based systems modelling complex tissue and disease states. The BioMAP assays were performed using the Eurofin's BioMAP Technology Platform as referenced in below articles to model different diseases on primary cell-based model systems. These systems consisted of either single primary cell types or co-culture cells. Adherent cell types were cultured or co-cultured in 96 or 384-well plates until confluence followed by the addition of compounds prepared in DMSO at a final concentration of <0.1%. In each cell-based system, primary cells from heathy donors (2-6 donors) were pooled and treated with compounds at 1 and 10 μM dose 1h prior to stimulation and remain in culture as indicated in Example 41, Example 42, Example 43, Example 44, Example 45, Example 46, Example 47, Example 48, Example 49, Example 50, Example 51, Example 52.
Following the general procedure as described in Example 40, Peripheral blood mononuclear cells co-cultured with venular endothelial cells (HUVEC) (LPS system) were stimulated with LPS for 24h in the presence or absence of compounds, to model cardiovascular disease and chronic inflammation. Biomarkers read out were; MCP-1, VCAM-1, Thrombomodulin, Tissue Factor, CD40, E-selectin, CD69, IL-8, IL-1α, M-CSF, sPGE2, SRB and TNFα.

[2] = system: Peripheral blood mononuclear cells co-cultured with B-cells (BT system); assay: BioMAP BT system (a-IgM and TCR ligands, 72h); format: cell-based, human; conditions: procedure of Example 45 (BT)
Method: as §1
Following the general procedure as described in Example 40, Peripheral blood mononuclear cells were co-cultured with B-cells (BT system) were treated with either a-IgM and TCR ligands for 72h in the presence or absence of the compounds to model asthma, allergy, oncology and autoimmunity. Biomarkers read out were; B-cell proliferation, PBMC cytotoxicity, secreted IgG, sIL-17A, sIL-17F, siL-2, sIL-6 and s-TNFα.

[3] = system: Peripheral blood mononuclear cells co-cultured with venular endothelial cells (Sag system); assay: BioMAP SAg system (T-cell ligands); format: cell-based, human; conditions: procedure of Example 44 (SAg), 10 μM
Method: as §1, with “In each cell-based system, primary cells from heathy donors (2-6 donors) were pooled and treated with compounds at 1 and 10 μM dose 1h prior to stimulation and remain in culture as indicated in Example 41, Example 42, Example 43, Example 44, Example 45, Example 46, Example 47, Example 48, Example 49, Example 50, Example 51, Example 52.” left out
Following the general procedure as described in Example 40, Peripheral blood mononuclear cells were co-cultured with venular endothelial cells and treated with […] (T-cell ligands) (Sag system) in the presence or absence of compounds to model autoimmune and chronic inflammation Biomarkers read out were; MCP-1, CD38, CD40, E-selectin, CD69, IL-8, MIG, PBMC cytotoxicity, Proliferation and SRB.

[4] = system: Bronchial epithelial cells (BE3C system); assay: BioMAP BE3C system (IL-1β, TNFα, IFNγ, 24h); format: cell-based, human; conditions: procedure of Example 47 (BE3C), 10 μM
Method: as §1, with “In each cell-based system, primary cells from heathy donors (2-6 donors) were pooled and treated with compounds at 1 and 10 μM dose 1h prior to stimulation and remain in culture as indicated in Example 41, Example 42, Example 43, Example 44, Example 45, Example 46, Example 47, Example 48, Example 49, Example 50, Example 51, Example 52.” left out
Following the general procedure as described in Example 40, Bronchial epithelial cells (BE3C system) were treated with IL-1β, TNFα and IFNγ for 24h in the presence or absence of the compounds to model lung inflammation and chronic obstructive pulmonary disease (COPD). Biomarkers read out were; ICAM-1, uPAR, IP-10, I-TA C, IL-A, MIG, EGFR, HLA-DR, IL-1α, Keratin 8/18, MMP-1, MMP-9, PAI-1, SRB, tPA, uPA.

[5] = system: MMA Patient fibroblasts (GM00371); assay: Mitochondrial morphology imaging in MMA patient fibroblasts (GM00371); format: cell-based; conditions: image compared with fragmented mitochondria in vehicle control
[6] = system: human primary cell-based systems; assay: BioMAP assay, general procedure of Example 40 (system not stated)
Method: as §1

[7] = system: Bronchial epithelial cells co-cultured with dermal fibroblast (BF4T system); assay: BioMAP BF4T system (TNFα and IL-4, 24h); format: cell-based, human; conditions: procedure of Example 46 (BF4T), 10 μM
Method: as §1
Following the general procedure as described in Example 40, Bronchial epithelial cells were co-cultured with dermal fibroblast (BF4T system) and were treated with TNFα. and IL-4 for 24h in the presence or absence of the compounds to model asthma, allergy, fibrosis, lung inflammation. Biomarkers read out were; MCP-1, Eotaxin-3, VCAM-1, ICAM-1, CD90, IL-8, IL-la, keratin 8/18, MMP-1, MMP-3, MMP-9, PAI-1, SRB, tPA, uPA.

[8] = system: Venular endothelial cells co-cultured with macrophages (Mphg system); assay: BioMAP Mphg system (TLR2 ligand, 24h); format: cell-based, human
Method: as §1
Following the general procedure as described in Example 40, Venular endothelial cells co-cultured with macrophages (Mphg system) and treated with TLR2 ligand for 24h in the presence or absence of the compounds to mimic cardiovascular inflammation, restenosis and chronic inflammation. Biomarkers read out were; MCP-1, MIP-1α, VCAM-1, CD40, E-selectin, CD69, IL-8, IL-1α, M-CSF, sIL-10 and SRB.

[9] = system: Venular Endothelial cells (HUVEC) (4H system); assay: BioMAP 4H system (IL-4 and histamine, 24h); format: cell-based, human; conditions: procedure of Example 42, 10 μM
Method: as §1
Following the general procedure as described in Example 40, Venular Endothelial cells (HUVEC) (4H system) were treated with IL-4 and histamine for 24h to model Th2 driven allergy and autoimmunity in the presence or absence of compounds. […]

[10] = system: Dermal fibroblasts (HDF3CGF system); assay: BioMAP HDF3CGF system (IL-1β, TNFα, IFNγ, EGF, bFGF, PDGF-BB, 24h); format: cell-based, human; conditions: procedure of Example 49 (HDF3CGF), 10 μM
Method: as §1
Following the general procedure as described in Example 40, Dermal fibroblasts (HDF3CGF system) were treated with IL-1β, TNFα and IFNγ, EGF, bFGF and PDGF-BB for 24h in the presence or absence of the compounds to model fibrosis and chronic inflammation. Biomarkers read out were; MCP-1, VCAM-1, ICAM-1, Collagen-I, Collagen-III, IP-10, I-TAC, IL-8, MIG, EGFR, M-CSF, MMP-1, PAI-1, SRB, TIMP-1, TIMP-2 and proliferation was measured for 72h.

[11] = system: Venular Endothelial cells (HUVEC) (3C system); assay: BioMAP 3C system (IL-1β, TNFα, IFNγ, 24h); format: cell-based, human; conditions: procedure of Example 41 (3C), 10 μM
Method: as §1, with “In each cell-based system, primary cells from heathy donors (2-6 donors) were pooled and treated with compounds at 1 and 10 μM dose 1h prior to stimulation and remain in culture as indicated in Example 41, Example 42, Example 43, Example 44, Example 45, Example 46, Example 47, Example 48, Example 49, Example 50, Example 51, Example 52.” left out
Following the general procedure as described in Example 40, Venular Endothelial cells (HUVEC) (3C system) were treated with IL-1β, TNFα, IFNγ for 24h to model Th1 driven cardiovascular and chronic inflammation diseases in the presence or absence of the compounds. Biomarker read out were; Tissue Factor, ICAM-1, E-selectin, uPAR (CD87), IL-8, MIG, HLA-DR, proliferation and SRB (Sulfo-rhodamine i.e., staining for protein content).

[12] = system: MMA Patient fibroblasts (TSI 3739); assay: Mitochondrial morphology imaging in MMA patient fibroblasts (TSI 3739); format: cell-based; conditions: image compared with fragmented mitochondria in vehicle control
[13] = system: Keratinocytes co-cultured with dermal fibroblast (KF3CT system); assay: BioMAP KF3CT system (IL-1β, TNFα, IFNγ, TGFβ, 24h); format: cell-based, human; conditions: procedure of Example 50 (KF3CT), 1 μM
Method: as §1
Following the general procedure as described in Example 40, Keratinocytes were co-cultured with dermal fibroblast (KF3CT system) and treated with IL-1β, TNFα, IFNγ and TGFβ for 24h in the presence or absence of the compounds to model psoriasis, dermatitis and skin biology. Biomarkers read out were; MCP-1, ICAM-1, IP-10, IL-8, MIG, IL-1α, MMP-9, PAI, SRB, TIMP-2, uPA.

[14] = procedure of Example 52 (Mphg), 10 μM

**Q.** What does the source list for `COC(=O)CCC(=O)SC[C@H](NC(=O)CCNC(=O)[C@H](O)C(C)(C)CO)C(=O)OC` [Compound 8, methyl 4-[[(2R)-2-[3-[(2R)-2,4-dihydroxy-3,3-dimethylbutanamido]propanamido]-3-methoxy-3-oxopropyl]sulfanyl]-4-oxobutanoate]?
**A.** % decrease in IL-1α ([1]; 1 μM): ≥20%; % decrease in IL-8 ([1]; 10 μM): ≥20%; % decrease in M-CSF ([1]; 10 μM): ≥10%; % decrease in TissueFactor ([1]; 10 μM): ≥10%; % increase in sTNFα ([1]; 10 μM): ≥10%; % decrease in sTNFα ([2]; 1 μM): ≥10%; % decrease in sIL-17 ([2]; 10 μM): ≥20%; % increase in sIL-2 ([2]; 10 μM): ≥20%; % increase in CD69 [3]: ≥10%; % decrease in uPA [4]: ≥10%; % increase in PAI-I [4]: ≥10%; mitochondrial morphology (elongation and networking of mitochondria) [5]: elongation and networking of mitochondria promoted; % decrease in Serum Amyloid A ([6]; procedure of Example 40, 1 μM): ≥10%; % decrease in VCAM-1 ([6]; procedure of Example 40, 1 μM): ≥10%; % increase in Collagen I ([6]; procedure of Example 40, 1 μM): ≥10%; % decrease in Proliferation ([6]; procedure of Example 40, 10 μM): ≥10%; % decrease in Thrombomodulin ([6]; procedure of Example 40, 10 μM): ≥20%; % increase in HLA-DR ([6]; procedure of Example 40, 10 μM): ≥10%; % increase in IL-6 ([6]; procedure of Example 40, 10 μM): ≥10%; % decrease in IL-1α [7]: ≥10%; % decrease in MMP-9 [7]: ≥10%; % increase in VCAM-1 [7]: ≥10%; % decrease in CD69 ([8]; procedure of Example 52 (Mphg), 1 μM): ≥20%; % decrease in E-Selectin [8, 14]: ≥10%; % decrease in IL-8 [8, 14]: ≥20%; % decrease in α-SMA ([8]; procedure of Example 52, 1 μM): ≥10%; % increase in MMP-1 ([8]; procedure of Example 52, 1 μM): ≥10%; % decrease in E-Selectin [9]: ≥20%; % decrease in TIMP-1 [10]: ≥10%; % decrease in TIMP-2 [10]: ≥10%; % increase in Collagen III [10]: ≥20%; % decrease in IL-8 [11]: ≥10%; mitochondrial morphology (elongation and networking of mitochondria) [12]: elongation and networking of mitochondria promoted; % decrease in MMP-9 [13]: ≥10%
